The experiment addresses T1, recombinant guanylate cyclase reporter cell line (Rattus norvegicus, UniProt P19686+P20595).
T1 construct: expressed in transfected cells
T1 sequence (P20595 1-619): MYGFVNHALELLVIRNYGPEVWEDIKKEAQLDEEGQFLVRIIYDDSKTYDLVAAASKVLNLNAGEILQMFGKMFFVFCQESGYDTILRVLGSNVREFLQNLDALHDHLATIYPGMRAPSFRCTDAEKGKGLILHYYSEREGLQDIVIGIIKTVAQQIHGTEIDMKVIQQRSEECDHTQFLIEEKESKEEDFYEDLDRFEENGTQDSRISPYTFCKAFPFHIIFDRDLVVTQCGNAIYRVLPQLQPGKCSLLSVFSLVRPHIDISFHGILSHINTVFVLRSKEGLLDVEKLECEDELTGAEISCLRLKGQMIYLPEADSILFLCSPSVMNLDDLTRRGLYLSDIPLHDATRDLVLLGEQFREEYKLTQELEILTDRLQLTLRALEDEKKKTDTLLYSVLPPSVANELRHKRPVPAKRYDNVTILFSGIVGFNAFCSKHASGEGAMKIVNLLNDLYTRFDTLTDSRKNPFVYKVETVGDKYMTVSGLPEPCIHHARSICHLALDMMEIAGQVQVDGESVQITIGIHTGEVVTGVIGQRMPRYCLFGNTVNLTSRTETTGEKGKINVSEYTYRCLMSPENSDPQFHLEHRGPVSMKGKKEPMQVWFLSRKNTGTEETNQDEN
T1 sequence (P19686 1-690): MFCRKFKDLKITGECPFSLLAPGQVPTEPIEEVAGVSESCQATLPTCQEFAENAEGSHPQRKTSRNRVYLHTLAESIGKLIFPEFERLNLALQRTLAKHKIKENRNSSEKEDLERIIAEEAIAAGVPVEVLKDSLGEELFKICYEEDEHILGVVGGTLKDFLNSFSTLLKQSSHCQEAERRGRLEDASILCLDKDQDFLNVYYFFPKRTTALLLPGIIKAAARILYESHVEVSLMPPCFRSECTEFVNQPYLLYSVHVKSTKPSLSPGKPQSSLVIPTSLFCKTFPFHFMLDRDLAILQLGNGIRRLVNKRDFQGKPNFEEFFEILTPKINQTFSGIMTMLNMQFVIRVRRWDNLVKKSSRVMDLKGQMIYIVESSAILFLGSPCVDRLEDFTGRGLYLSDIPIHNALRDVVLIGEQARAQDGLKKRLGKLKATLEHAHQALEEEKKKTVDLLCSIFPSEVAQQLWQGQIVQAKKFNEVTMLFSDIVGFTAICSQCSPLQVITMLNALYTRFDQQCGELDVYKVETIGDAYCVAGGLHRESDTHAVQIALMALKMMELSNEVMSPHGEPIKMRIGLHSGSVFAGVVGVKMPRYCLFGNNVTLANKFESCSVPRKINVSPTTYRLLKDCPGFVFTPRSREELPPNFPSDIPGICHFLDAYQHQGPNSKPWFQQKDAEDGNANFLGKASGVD
Put plainly: Effect on a recombinant guanylate cyclase reporter cell line (B-2). The experiment is classed as cell-based. The conditions noted are these: MEC = minimum effective concentration; in some cases mean values from individual determinations. Here is the method: B-2. Effect on a Recombinant Guanylate Cyclase Reporter Cell Line
The cellular activity of the compounds according to the invention is determined using a recombinant guanylate cyclase reporter cell line, as described in F. Wunder et al., Anal. Biochem. 339, 104-112 (2005).
Representative MEC values (MEC=minimum effective concentration) for the compounds of the invention are shown in the table below (in some cases as mean values from individual determinations): […]
Regarding `Cc1cc(OCc2c(F)cccc2F)c2nc(C)c(C(=O)NC(C)C#N)n2c1` (single isomer, unassigned) [Example 15, ent-N-(1-Cyanoethyl)-8-[(2,6-difluorobenzyl)oxy]-2,6-dimethylimidazo[1,2-a]pyridine-3-carboxamide], the MEC turned out to be 0.3 µM.
In the case of `Cc1cc(OCc2c(F)cccc2F)c2nc(C)c(C(=O)NC(C)C#N)n2c1` (single isomer, unassigned) [Example 16, ent-N-(1-Cyanoethyl)-8-[(2,6-difluorobenzyl)oxy]-2,6-dimethylimidazo[1,2-a]pyridine-3-carboxamide], the MEC is 0.3 µM.
As for `Cc1cc(OCc2c(F)cccc2F)c2nc(C)c(C(=O)NCC(N)CC#N)n2c1` (single isomer, unassigned) [Example 42, ent-N-(2-Amino-3-cyanopropyl)-8-[(2,6-difluorobenzyl)oxy]-2,6-dimethylimidazo[1,2-a]pyridine-3-carboxamide], the MEC turned out to be 1 µM.
Next, `Cc1cc(OCc2c(F)cccc2F)c2nc(C)c(C(=O)NCC(N)CC#N)n2c1` (single isomer, unassigned) [Example 43, ent-N-(2-Amino-3-cyanopropyl)-8-[(2,6-difluorobenzyl)oxy]-2,6-dimethylimidazo[1,2-a]pyridine-3-carboxamide]: 1 µM.
As to `Cc1cc(OCc2c(F)cccc2F)c2nc(C)c(C(=O)NCC(N)CCCC#N)n2c1` (single isomer, unassigned) [Example 46, ent-N-(2-Amino-5-cyanopentyl)-8-[(2,6-difluorobenzyl)oxy]-2,6-dimethylimidazo[1,2-a]pyridine-3-carboxamide], the MEC was 3 µM.
For `Cc1cc(OCc2c(F)cccc2F)c2nc(C)c(C(=O)NCC(N)CCCC#N)n2c1` (single isomer, unassigned) [Example 47, ent-N-(2-Amino-5-cyanopentyl)-8-[(2,6-difluorobenzyl)oxy]-2,6-dimethylimidazo[1,2-a]pyridine-3-carboxamide], the MEC was 1 µM.
As to `Cc1cc(OCc2c(F)cccc2F)c2nc(C)c(C(=O)NCC#N)n2c1` [Example 2, N-(cyanomethyl)-8-[(2,6-difluorobenzyl)oxy]-2,6-dimethylimidazo[1,2-a]pyridine-3-carboxamide], the MEC was found to be 0.3 µM.
Turning to `Cc1cc(OCc2c(F)cccc2F)c2nc(C)c(C(=O)NC(C)(C)C#N)n2c1` [Example 3, N-(2-cyanopropan-2-yl)-8-[(2,6-difluorobenzyl)oxy]-2,6-dimethylimidazo[1,2-a]pyridine-3-carboxamide], the MEC turned out to be 0.1 µM.
Consider `Cc1cc(OCc2c(F)cccc2F)c2nc(C)c(C(=O)NC3(C#N)CC3)n2c1` [Example 4, N-(1-cyanocyclopropyl)-8-[(2,6-difluorobenzyl)oxy]-2,6-dimethylimidazo[1,2-a]pyridine-3-carboxamide], for which the MEC is 0.3 µM.
Consider `Cc1cc(OCc2c(F)cccc2F)c2nc(C)c(C(=O)NC3(C#N)CCC3)n2c1` [Example 5, N-(1-cyanocyclobutyl)-8-[(2,6-difluorobenzyl)oxy]-2,6-dimethylimidazo[1,2-a]pyridine-3-carboxamide], for which the MEC came to 0.03 µM.
As for `Cc1cc(OCc2c(F)cccc2F)c2nc(C)c(C(=O)NCCC#N)n2c1` [Example 9, N-(2-cyanoethyl)-8-[(2,6-difluorobenzyl)oxy]-2,6-dimethylimidazo[1,2-a]pyridine-3-carboxamide], the MEC is 0.3 µM.
Next, `Cc1cc(OCc2c(F)cccc2F)c2nc(C)c(C(=O)NCCCCCC#N)n2c1` [Example 10, N-(5-cyanopentyl)-8-[(2,6-difluorobenzyl)oxy]-2,6-dimethylimidazo[1,2-a]pyridine-3-carboxamide]: 0.1 µM.
Next, `Cc1cc(OCc2c(F)cccc2F)c2nc(C)c(C(=O)NC3CCCCC3C#N)n2c1` (stereo not shown) [Example 11, N-(2-cyanocyclohexyl)-8-[(2,6-difluorobenzyl)oxy]-2,6-dimethylimidazo[1,2-a]pyridine-3-carboxamide]: 0.3 µM.

The values are drawn from patent US9771360B2, “Cyano-substituted imidazo[1,2-A]pyridinecarboxamides and their use” (Bayer Pharma Aktiengesellschaft, priority 2014, dated 2017).
